# Where two headings read alike, the source gives them in different places.
# Experiments:
# [1] = Drug-drug interactions (co-administration); type: in vivo, human
# From the text: Co-administration with […] paroxetine had no effect on bifeprunox PK. Bifeprunox exposure was reduced by approximately 50% after co-administration with the CYP3A4 inducer carbamazepine. […] Bifeprunox had no effect on the PK and pharmacodynamics of warfarin and the PK of lithium. […] Administration of famotidine, an H2 antagonist that inhibits gastric acid secretion, had no effect on bifeprunox PK.
# [2] = Administration with a high-fat meal; type: in vivo, human; settings: 40 mg dose
# Procedure: Bifeprunox was rapidly absorbed after oral administration. The median time to peak plasma concentration (Tmax) was approximately 2 hours. Multiple patients were dosed proportional in the 20 to 40 mg/day range (mean AUC0-24 for 20 mg: 381.5 ng·hr/mL and mean AUC0-24 for 40 mg: 825.1 ng·hr/mL). […] Absolute oral bioavailability of the bifeprunox tablets used in the pooled studies has not been determined.
# [3] = Pooled analysis of pharmacokinetic parameters in healthy subjects; type: in vivo, human
# From the text: (§1) The pharmacokinetics of bifeprunox in healthy subjects were investigated based on a pooled analysis of pharmacokinetic (PK) parameters from 21 clinical pharmacology studies. The pooled analysis included PK profiles obtained following single and multiple doses administered to 132 and 399 subjects, respectively, and explored the potential effects of age, gender, body weight and race. In addition, PK in patients (PTS) with schizophrenia were investigated using a population PK approach based on samples from 376 subjects in phase II studies and 434 subjects in phase III studies.
# (§2) In healthy subjects and patients with schizophrenia, the maximum tolerated single dose of bifeprunox was 0.5 mg. Tolerance to dose-limiting side effects (nausea, dizziness, vomiting, and orthostatic hypotension) developed as the dosage was titrated upwards. All PK assessments at doses higher than 0.5 mg were performed following multiple dosages under steady-state conditions. Doses of 5-40 mg were administered in efficacy studies. PK parameters describing absorption, distribution, metabolism, and elimination were calculated based on non-compartmental analysis. PK parameter values from each study were combined to create a pooled dataset. The potential influence of gender, body weight, and race on bifeprunox PK was analyzed.
# [4] = Tablet dissolution test (paddle method); type: physicochemical; settings: McILvaine buffer pH 3.0
# Procedure: Three different strengths of tablets (10 mg, 5 mg and 1 mg of bifeprunox mesylate) were prepared having the compositions shown in Table 10; the tablets were designated T1, T2 and T3, respectively.
# Each of the tablets were placed in a dissolution test under the following conditions: Apparatus: paddle method; Stirring speed: 50 rpm; Amount of test dissolution medium: 900 ml; Temperature of dissolution medium: 37° C.±0.5° C.
# Six different dissolution media were used as follows:
# Media 1: Dissolve 2.0 g of sodium chloride dissolved in 7.0 ml of hydrochloric acid, q.s. with water to make 1000 ml (pH 1.2);
# Media 2: McILvaine buffer solution (pH 3.0), pH adjusted with 0.05 mol/L of sodium hydrogen phosphate and 0.025 mol/L of citric acid;
# Media 3: McILvaine buffer solution (pH 4.0);
# Media 4: McILvaine buffer solution (pH 5.0);
# Media 6: To 250 ml of 0.2 mol/L potassium dihydrogenphosphate TS add 118 ml of 0.2 mol/L sodium hydroxide TS and water to make 1000 ml.
# Dissolution testing was performed in triplicate.
# [5] = PK in healthy subjects with reduced CYP2C enzyme activity; type: in vivo, human
# [6] = In vitro metabolism; type: in vitro ADME; settings: in vitro data, CYP2A4
# [7] = target: T1, CYP3A4 (Homo sapiens, UniProt P08684); assay: In vitro metabolism; type: in vitro ADME; settings: in vitro data
# T1 sequence (P08684 whole entry): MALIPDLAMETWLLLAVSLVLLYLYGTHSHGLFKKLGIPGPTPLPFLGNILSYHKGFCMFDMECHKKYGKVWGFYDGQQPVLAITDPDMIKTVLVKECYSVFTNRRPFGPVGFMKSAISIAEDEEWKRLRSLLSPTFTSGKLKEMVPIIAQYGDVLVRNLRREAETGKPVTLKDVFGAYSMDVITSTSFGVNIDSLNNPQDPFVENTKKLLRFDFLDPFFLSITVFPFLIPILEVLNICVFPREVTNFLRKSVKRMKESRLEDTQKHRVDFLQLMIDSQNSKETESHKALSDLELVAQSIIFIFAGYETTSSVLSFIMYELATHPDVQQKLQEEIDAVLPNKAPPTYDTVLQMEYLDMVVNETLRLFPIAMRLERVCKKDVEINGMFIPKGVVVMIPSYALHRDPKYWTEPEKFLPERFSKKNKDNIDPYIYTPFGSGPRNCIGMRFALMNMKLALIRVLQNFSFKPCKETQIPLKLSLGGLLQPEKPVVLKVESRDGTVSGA
# [8] = Population PK assessment in patients with schizophrenia; type: in vivo, human; settings: schizophrenia patients (SP)
# From the text: as §1
# A population-based PK assessment using compartmental methods was conducted in 810 patients with schizophrenia enrolled in several clinical studies.
# [9] = target: T2, CYP2C9 (Homo sapiens, UniProt P11712); assay: Metabolism based on in vivo data; set-up: from tissue; host or cells: endogenous enzyme of clinical subjects (in vivo)
# T2 sequence (P11712 whole entry): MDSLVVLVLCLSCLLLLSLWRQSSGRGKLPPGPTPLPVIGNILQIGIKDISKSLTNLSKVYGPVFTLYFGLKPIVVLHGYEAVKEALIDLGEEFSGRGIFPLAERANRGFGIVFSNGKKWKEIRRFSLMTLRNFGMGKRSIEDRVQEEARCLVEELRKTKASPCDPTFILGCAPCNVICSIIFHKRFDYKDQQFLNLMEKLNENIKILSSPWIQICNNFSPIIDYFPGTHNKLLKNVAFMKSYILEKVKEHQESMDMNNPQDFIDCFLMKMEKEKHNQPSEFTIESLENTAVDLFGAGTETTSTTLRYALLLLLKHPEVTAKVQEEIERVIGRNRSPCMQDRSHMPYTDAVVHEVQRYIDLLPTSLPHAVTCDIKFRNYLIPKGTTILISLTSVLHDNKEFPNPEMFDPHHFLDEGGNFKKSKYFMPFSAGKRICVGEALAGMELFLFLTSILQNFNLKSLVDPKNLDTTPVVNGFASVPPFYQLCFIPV
# Procedure: (§3) Based on those pharmacokinetics, bifeprunox (an investigational partial dopamine agonist antipsychotic compound) was rapidly absorbed after oral administration. Multiple-dose PK of bifeprunox were dose proportional over the range of 20 to 40 mg doses. Bifeprunox was extensively distributed into peripheral tissues and highly protein bound. It was primarily eliminated in the feces. […] Bifeprunox has a low drug interaction potential with other drugs used in these studies (e.g. lithium, warfarin and famotidine).
# [10] = target: T1, CYP3A4; assay: Metabolism based on in vivo data; set-up: from tissue; host or cells: endogenous enzyme of clinical subjects (in vivo)
# Procedure: as §3
# [11] = test system: plasma proteins; assay: Plasma protein binding; type: in vitro ADME; settings: human, healthy patients as well as those with renal or hepatic impairment, read-out: bound to plasma proteins
# From the text: Apparent volume of distribution (Vz/F) was 1300 L. Based upon the volume of distribution, bifeprunox was extensively distributed into the peripheral tissues. […] Bifeprunox was more than 99% bound to plasma proteins in healthy patients as well as those with renal or hepatic impairment.
# [12] = target: T2, CYP2C9; assay: In vitro metabolism; type: in vitro ADME; settings: in vitro data
# [13] = Maximum tolerated single dose; type: in vivo, human; settings: healthy subjects and patients with schizophrenia
# Procedure: as §2
# [14] = Stability of polymorphic forms; type: physicochemical; settings: for thermodynamic stability of the crystalline form: monomethanesulfonate
# From the text: During further investigations it appeared that polymorphs γ and δ are metastable, and therefore may have drawbacks when used in a pharmaceutical formulation. The unpredictable formation of one of the two polymorphs γ and δ or a mixture thereof is also undesirable. It would be desirable, therefore, to provide a stable crystalline form of 7-[4-([1,1′-biphenyl]-3-ylmethyl)-1-piperazinyl]-2(3H)-benzoxazolone monomethanesulfonate for pharmaceutical use which can be consistently produced.
# Furthermore this crystalline form crystallizes in the form of large crystals which can be easily filtrated and have a high purity. Therefore this polymorph α is particularly suitable for the formulation of bifeprunox mesylate in a solid form, if desired after particle size reduction.
# [15] = co-administration with carbamazepine
# [16] = co-administration with fluconazole
# [17] = co-administration with ketoconazole
structure (smiles),measurement,setting,value
"O=c1[nH]c2cccc(N3CCN(Cc4cccc(-c5ccccc5)c4)CC3)c2o1 [bifeprunox, 7-[4-([1,1′-biphenyl]-3-ylmethyl)-1-piperazinyl]-2(3H)-benzoxazolone monomethanesulfonate]",effect on bifeprunox PK,[1]; administration of famotidine,no effect
same,"prothrombin time profile following warfarin, presence versus absence of bifeprunox",[1]; bifeprunox 40 mg/day with warfarin,comparable
same,decrease of mean AUC0-24,[1]; [15],54%
same,decrease of mean Cmax,[1]; [15],50%
same,reduction of bifeprunox exposure,[1]; [15],approximately 50%
same,increase of mean bifeprunox AUC0-24,[1]; [16],3.7 fold
same,increase of mean bifeprunox Cmax,[1]; [16],2.5 fold
same,increase of bifeprunox AUC0-24,[1]; [17],63%
same,increase of bifeprunox Cmax,[1]; [17],44%
same,effect of bifeprunox on the PK of lithium,[1]; co-administration with lithium,no effect
same,effect on bifeprunox PK,[1]; co-administration with paroxetine,no effect
same,effect of bifeprunox on the PK and pharmacodynamics of warfarin,[1]; co-administration with warfarin,no effect
same,Cmax increase with high-fat meal,[2],29%
same,Tmax delay with high-fat meal,[2],1.5 h
same,Bioavailability (predicted),[3]; based on hepatic blood flow and oral clearance,54%
same,mean steady-state elimination half-life (t1/2),[3]; following multiple dose administration,14.4 hours and approximately 14 hours
same,Cl/F,[3]; healthy subjects (HS),62.2 L/h
same,blood plasma ratio,"[3]; human, blood and plasma",0.7 to 0.9
same,Vd/F,"[3]; human, in vivo",~1300 L
same,distribution of bifeprunox or its metabolites into red blood cells,"[3]; human, in vivo",No extensive distribution
same,half-life,"[3]; human, in vivo",14 h
same,half-life,"[3]; human, in vivo, multiple dose, 20 and 40 mg/day, mean ± SD, read-out: T1/2 (converted)",14.4 ± 5.3 h
same,AUC(0-t),"[3]; human, plasma, oral, 20 mg, multiple dose, read-out: mean AUC0-24",382 ng·h/mL
same,AUC(0-t),"[3]; human, plasma, oral, 40 mg, multiple dose, read-out: mean AUC0-24",825 ng·h/mL
same,Vd/F,"[3]; human, plasma, oral, healthy subjects, read-out: Apparent volume of distribution (Vz/F)",1300 L
same,Cmax,"[3]; human, plasma, oral, multiple dose, 20 and 40 mg/day, dose normalized to 20 mg, mean ± SD",62.1 ± 38.2 ng/mL
same,AUC(0-t),"[3]; human, plasma, oral, multiple dose, 20 and 40 mg/day, dose normalized to 20 mg, mean ± SD, read-out: AUC0-24",402 ± 292 ng·h/mL
same,Vd/F,"[3]; human, plasma, oral, multiple dose, 20 and 40 mg/day, mean ± SD, read-out: Vzbw/F (apparent volume of distribution corrected by body weight)",17.3 ± 9.4 L/kg
same,Tmax,"[3]; human, plasma, oral, multiple dose, 20 and 40 mg/day, median (range), read-out: Tmax",2 h
same,CL/F,"[3]; human, plasma, po, multiple dose, 20 and 40 mg/day, mean ± SD, read-out: CLbw/F (weight normalized oral clearance) (converted)",15 mL/min/kg
same,Tmax,"[3]; human, plasma, oral administration, read-out: median time to peak plasma concentration (Tmax)",~2 h
same,"age-, gender-, body weight-, or race-related effects on PK",[3]; pooled analysis,no clinically relevant
same,Steady-state mean oral clearance (CL/F),[3]; steady state,62.2 L/h
same,dissolution behavior,[4],dissolves almost immediately
same,"AUC, fold higher than for extensive metabolizers",[5]; intermediate metabolizers,3.7 fold
same,"Cmax, fold higher than for extensive metabolizers",[5]; intermediate metabolizers (reduced CYP2C activity),3.1 fold
same,"AUC, fold higher than for extensive metabolizers",[5]; slow metabolizers,7.1 fold
same,"Cmax, fold higher than for extensive metabolizers",[5]; slow metabolizers (reduced CYP2C activity),3.9 fold
same,metabolism in the liver by enzyme,[6],minor contribution
same,metabolism in the liver by enzyme,[7],primarily
same,half-life,"[8]; human, in vivo, oral",15 h
same,Vd/F,"[8]; human, in vivo, oral, read-out: Vz/F",~1100 L
same,Cl/F,[8],57 L/h
same,"metabolism by enzyme, based on in vivo data",[9],primarily metabolized
same,"metabolism by enzyme, based on in vivo data",[10],to a lesser extent
same,fraction unbound,[11],< 0.01
same,metabolism in the liver by enzyme,[12],primarily
same,maximum tolerated single dose,[13],0.5 mg
"O=c1[nH]c2cccc(N3CCN(Cc4cccc(-c5ccccc5)c4)CC3)c2o1 [polymorph α, 7-[4-([1,1′-biphenyl]-3-ylmethyl)-1-piperazinyl]-2(3H)-benzoxazolone monomethanesulfonate]",conversion of the polymorphic form,[14]; high atmospheric humidity or higher temperature,does not undergo conversion
same,thermodynamic stability of the crystalline form,[14],more thermodynamically stable
"O=c1[nH]c2cccc(N3CCN(Cc4cccc(-c5ccccc5)c4)CC3)c2o1 [polymorph γ, 7-[4-([1,1′-biphenyl]-3-ylmethyl)-1-piperazinyl]-2(3H)-benzoxazolone monomethanesulfonate]",thermodynamic stability of the crystalline form,[14],metastable
"O=c1[nH]c2cccc(N3CCN(Cc4cccc(-c5ccccc5)c4)CC3)c2o1 [polymorph δ, 7-[4-([1,1′-biphenyl]-3-ylmethyl)-1-piperazinyl]-2(3H)-benzoxazolone monomethanesulfonate]",thermodynamic stability of the crystalline form,[14],metastable

# Reference: US7964604B2, “Bifeprunox mesylate maintenance dose compositions and methods for using the same” (Solvay Pharmaceuticals B.V., priority 2005, dated 2011)
